{
  "source": "patent EP3454861B1",
  "about": "“BENZOXAZINE OR QUINAZOLINE DERIVATIVES FOR USE IN THE TREATMENT OF ALZHEIMER'S DISEASE” (Biocodex, priority 2016, dated 2017)",
  "system": "modèle murin de maladie d'Alzheimer par administration du peptide amyloïde β25-35",
  "assay": "Spontaneous alternation test in the Y-maze (spatial working memory), Aβ25-35 mouse model",
  "type": "in vivo, souris",
  "settings": "all doses tested (12,5, 25, 50 mg/kg per day IP), day 8, Aβ25-35 9 nmol ICV",
  "from_the_text": "Soixante-douze souris males Swiss (30-35 grammes) sont utilisées. Six groupes sont constitués et soumis à différents traitements : Tableau 1. Groupes de traitement.\nLe 1^er jour : une version « mélangée » (scrambled) du peptide amyloïde β25-35 (Sc.Aβ, témoin négatif) ou le peptide amyloïde β25-35 (Aβ25-35) est injecté par voie intra-cérébroventriculaire (ICV) (le peptide Aβ25-35 provoque l'intoxication cellulaire). Entre le 1^er jour et le 10^ème jour, les traitements sont administrés une fois par jour par voie intrapéritonéale (IP).\nDu 8^ème au 10^ème jour, deux tests comportementaux sont effectués : • Procédure d'alternance spontanée dans le labyrinthe en Y (évaluation de la mémoire spatiale de travail) le 8^ème jour, soit 7 jours après l'injection de peptide; • Réponse d'évitement passif (évaluation de la mémoire contextuelle à long terme) avec l'entrainement le 9^ème jour et la séance de rétention le 10^ème jour.\nChaque souris est anesthésiée avec 2,5% d\"isoflurane. Le peptide Aβ25-35 (9 nmol/souris) ou le peptide Sc.Aβ (9 nmol/souris) est injecté par voir ICV, dans un volume final de 3 µL/souris. […]",
  "data": [
    {"molecule": "CCNC1=Nc2ccc(Cl)cc2C(C)(c2ccccc2)O1", "note": "(stereo not shown) [Etifoxine, chlorhydratede 6-chloro-2-éthylamino-4-méthyl-4-phényl-4H-[3,1]benzoxazine]", "values": [
      {"measurement": "déficits d'apprentissage (alternance spontanée, mémoire spatiale)", "result": "atténue de façon significative les déficits d'apprentissage"}
    ]}
  ]
}
